Test results taken from PubChem BioAssay (NCI).
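Values below derive from 48-hour exposures of cells grown in 96-well plates, with endpoints linearly interpolated between the two concentrations bracketing the appropriate inhibition level. TGI marks complete inhibition of growth.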

Key:
Test in all cases: NCI-60 cell line screen, 48 h
EKVX NSCLC = tested on: EKVX NSCLC
KM12 colon = tested on: KM12 colon
M14 melanoma = tested on: M14 melanoma
MDA-MB-435 = tested on: MDA-MB-435
MOLT-4 leukemia = tested on: MOLT-4 leukemia
NCI-H226 lung = tested on: NCI-H226 lung
NCI-H460 lung = tested on: NCI-H460 lung
NCI/ADR-RES ovarian = tested on: NCI/ADR-RES ovarian
SK-MEL-28 melanoma = tested on: SK-MEL-28 melanoma
SR leukemia = tested on: SR leukemia
U251 CNS = tested on: U251 CNS
SF-539 CNS = tested on: SF-539 CNS

SMILES | TGI (EKVX NSCLC) | TGI (KM12 colon) | TGI (M14 melanoma) | TGI (MDA-MB-435) | TGI (MOLT-4 leukemia) | TGI (NCI-H226 lung) | TGI (NCI-H460 lung) | TGI (NCI/ADR-RES ovarian) | TGI (SK-MEL-28 melanoma) | TGI (SR leukemia) | TGI (U251 CNS) | TGI (SF-539 CNS)
NCCCC(N)C(=O)O (stereo unspecified) | > 100 µM | > 100 µM | > 100 µM | > 100 µM | > 100 µM | > 100 µM | > 100 µM | > 100 µM | > 100 µM | > 100 µM | > 100 µM | 
COC(c1ccc(C(C)(C)C)cc1)(c1ccc(C(C)(C)C)cc1)c1cc(C(O)(c2cc(C(OC)(c3ccc(C(C)(C)C)cc3)c3ccc(C(C)(C)C)cc3)c(C)cc2C)c2cc(C(OC)(c3ccc(C(C)(C)C)cc3)c3ccc(C(C)(C)C)cc3)c(C)cc2C)c(C)cc1C | > 100 µM |  | > 100 µM | > 100 µM | > 100 µM | > 100 µM | > 100 µM | > 100 µM | > 100 µM | > 100 µM | > 100 µM | > 100 µM
CN1C(=O)CN(NC(=O)C2=C(O)c3ccc(Br)cc3S(=O)(=O)N2)C1=S | > 100 µM | > 100 µM | > 100 µM | > 100 µM | > 100 µM | > 100 µM | > 100 µM | > 100 µM | > 100 µM | > 100 µM | > 100 µM | 
O=C(O)Cc1ccc2nc(COC(=O)c3ccccc3)sc2c1 | > 100 µM | > 100 µM | > 100 µM | > 100 µM |  |  | > 100 µM | > 100 µM | > 100 µM | > 100 µM | > 100 µM | 
O=C(OCc1ccccc1)OOC(=O)OCc1ccccc1 | > 100 µM | > 100 µM | > 100 µM |  | > 100 µM |  | > 100 µM |  | > 100 µM | > 100 µM | > 100 µM | > 100 µM
C[C@@H]1C[C@H](O)[C@]2(O)O[C@@H]3C[C@@]4(C=O)[C@@H](CC=C5[C@@H]4CC[C@]4(C)[C@@H](C6=CC(=O)OC6)CC[C@]54O)C[C@H]3O[C@@H]2O1 | 0.215 µM | 0.749 µM | 0.817 µM | 0.151 µM |  | 0.233 µM | 0.0711 µM | 0.215 µM |  |  | 0.188 µM | 0.141 µM
O=C(O[C@H](/C=C/c1ccccc1)P1(=O)N(Cc2ccccc2)[C@@H]2CCCC[C@H]2N1Cc1ccccc1)c1ccccc1 | 68 µM | 14.2 µM | > 100 µM | 96.3 µM |  | 7.98 µM | > 100 µM | 43.1 µM | > 100 µM | > 100 µM | 31.3 µM | 22.2 µM
CCN(CCCN(CC)C(=O)N[C@@H](Cc1ccccc1)C(=O)NC)C(=O)N[C@@H](Cc1ccccc1)C(=O)NC | > 100 µM | > 100 µM | > 100 µM | > 100 µM |  | > 100 µM | > 100 µM | > 100 µM | > 100 µM | > 100 µM | > 100 µM | > 100 µM
CC1=CC=CC(C)(C)CC1(O[Si](C)(C)C)C(F)(F)F (stereo unspecified) | > 100 µM | > 100 µM | > 100 µM | > 100 µM |  | > 100 µM | > 100 µM | > 100 µM | > 100 µM | > 100 µM | > 100 µM | > 100 µM
N#CSCc1cccc(Nc2cc(=O)[nH]c(=O)[nH]2)c1 | > 100 µM | > 100 µM | > 100 µM | > 100 µM |  | > 100 µM | > 100 µM | > 100 µM | > 100 µM |  | > 100 µM | 98.6 µM
C/C(=N/NC(=S)Nc1cccc(C)c1)c1ccccn1 | 2.3 µM | 4.12 µM | 2.46 µM | 3.5 µM |  | 1.28 µM | 5.59 µM | 0.444 µM | 7.61 µM | 2.92 µM | 4.89 µM | 5.62 µM
CC(=O)Nc1ccc(Cl)c(Cl)c1 | > 100 µM | > 100 µM | > 100 µM |  | > 100 µM | > 100 µM | > 100 µM |  | > 100 µM | > 100 µM | > 100 µM | > 100 µM
Cc1ccc(C(=O)Nc2ccc(CP(=O)(O)O)cc2)cc1NC(=O)c1cccc(NC(=O)Nc2cccc(C(=O)Nc3cc(C(=O)Nc4ccc(CP(=O)(O)O)cc4)ccc3C)c2)c1 | > 100 µM | > 100 µM | > 100 µM | > 100 µM |  | > 100 µM | > 100 µM | > 100 µM | > 100 µM |  | > 100 µM | > 100 µM
Cc1cc(O)cc(O)c1N=Nc1ccc([N+](=O)[O-])cc1 | 90.8 µM | 63.1 µM | > 100 µM | 42.4 µM | 17.3 µM |  | 61 µM | 52.9 µM | 61 µM |  | 53.9 µM | 49.9 µM
O=C1NC(=S)NC(=O)C1C(c1ccccc1[N+](=O)[O-])C1C(=O)NC(=S)NC1=O |  | > 100 µM | > 100 µM | > 100 µM | > 100 µM | > 100 µM | > 100 µM | > 100 µM | > 100 µM |  | > 100 µM | 
CC(C)/C(Cl)=N\OC(=O)NNc1ccccc1 | 37.3 µM | > 100 µM | > 56.3 µM | > 100 µM | 17.7 µM | 99.7 µM | > 100 µM | > 100 µM | > 100 µM |  | > 100 µM | > 100 µM
OCc1ccccc1C1CSCSC1 |  | > 100 µM |  |  | > 100 µM | > 100 µM | > 100 µM |  | > 100 µM |  | > 100 µM | > 100 µM
CCOC(=O)C1CC(O)C(=O)N1C (stereo unspecified) | > 100 µM |  | > 100 µM | > 100 µM | > 100 µM | > 100 µM |  |  | > 100 µM | > 100 µM | > 100 µM | > 100 µM
C[C@]12CC/C(=N\O)C=C1CC[C@@H]1[C@@H]2CC[C@]2(C)C(=N/O)/C(=C/c3cccnc3)C[C@@H]12 | 79.5 µM | 32.1 µM | 75 µM | 46.9 µM | 4 µM | 18.1 µM | 22.7 µM | > 100 µM | 53.1 µM |  | 94.9 µM | 82.8 µM
Cc1oc2nc(N(C)C)n3nnnc3c2c1C | > 100 µM | > 100 µM | > 100 µM | > 100 µM | > 100 µM | > 100 µM |  | > 100 µM | > 100 µM |  | > 100 µM | > 100 µM
